Experimental findings from patent US20080199503A1, “Pharmaceutical Compositions Preparation of Peptides, Secreted by the Snake Venom Glands, Particularly of Bothrops Jararaca, Vasopeptidases Inhibitors, Evasins, Their Analogues, Derivatives and Products Associated, Thereof, for Development of Applications and Use in Chronic-Degenerative Diseases” (priority 2002, published 2008) are described below.

The subject of assay [1] is anesthetized normotensive rats (WKY) blood pressure. As to the kind of experiment: Potentiation of the bradykinin hypotensive effect on anesthetized rat blood pressure. The note with it: for Bk potentiation(%): hypotension increase of a single bradykinin dose after 200 nmol of potentiator i.v., anesthetized rats; for Duration time: time to reduce the potentiating effect by 50%, 200 nmol/rat i.v., unit not given, minutes. In kind it is in vivo. On the procedure: The potentiating activity of the bradykinin hypotensive effect was tested in anesthetized rats. Normotensive male rats (WKY) were anesthetized using pentobarbital sodium (Hypnol® Cristália, 50 mg/kg, intraperitoneal) and placed on a controlled-temperature board for maintaining the body temperature between 36.5° C. and 37° C. A polygraph coupled to a physiological transducer was used. The blood pressure ranging values were obtained by integrating the areas limited by the baseline pressure and comparing them to the values obtained from control assays. In in vivo assays, the potentiating activity of Evasins on the hypotensive effect of bradykinin on anesthetized rat blood pressure was observed. Two parameters were determined for comparison of the potentiating effects of bradykinin on the anesthetized rat blood pressure (n=5):
1) Intensity of the potentiating effect of the hypotensive activity of bradykinin on the anesthetized rats blood pressure: This value was defined as the hypotension percentage (%) increase caused by a single dose of bradykinin obtained after the infusion of 200 nmol of potentiator. 2) Potentiating effect length: Time required to reduce the potentiating effect on a single dose of bradykinin by 50%.

Assay [2] has as its target N-terminal catalytic site of the Angiotensin I converting enzyme (recombinant ACE) (Homo sapiens, UniProt P12821). As to the kind of experiment: Inhibition of the N-terminal catalytic site of recombinant ACE (fluorogenic substrate). In kind it is biochemical. On the procedure: (§1) The fractions from purification were submitted to mass spectrometry analysis to conforming the Evasins molar mass after purification. • The enzyme assays for the recombinant ACE inhibition were conducted using the substrate Mca-Ala-Ser-Asp-Lys-DpaOH, at 25° C., in a 50 mM Hepes buffer (pH 6.8), 200 mM NaCl and […] ZnCl2.

In assay [3] the target is C-terminal catalytic site of the Angiotensin I converting enzyme (recombinant ACE) (Homo sapiens, UniProt P12821). Description: Inhibition of the C-terminal catalytic site of recombinant ACE (fluorogenic substrate). In kind it is biochemical. On the procedure:
as §1

For assay [4], the target named is neutral endopeptidase (recombinant NEP) (Homo sapiens, UniProt P08473). As to the kind of experiment: Fluorometric assay of recombinant NEP inhibition. In kind it is biochemical. On the procedure: The fluorometric assays for the recombinant NEP inhibition were conducted using the substrate Abz-RL-EDDnp in a 50 mM Tris-HCl buffer, pH 7.5, at 37° C. […] The Evasins were pre-incubated with the enzyme before the substrate addition.
Chain of neutral endopeptidase (recombinant NEP) (P08473 whole entry, species assumed): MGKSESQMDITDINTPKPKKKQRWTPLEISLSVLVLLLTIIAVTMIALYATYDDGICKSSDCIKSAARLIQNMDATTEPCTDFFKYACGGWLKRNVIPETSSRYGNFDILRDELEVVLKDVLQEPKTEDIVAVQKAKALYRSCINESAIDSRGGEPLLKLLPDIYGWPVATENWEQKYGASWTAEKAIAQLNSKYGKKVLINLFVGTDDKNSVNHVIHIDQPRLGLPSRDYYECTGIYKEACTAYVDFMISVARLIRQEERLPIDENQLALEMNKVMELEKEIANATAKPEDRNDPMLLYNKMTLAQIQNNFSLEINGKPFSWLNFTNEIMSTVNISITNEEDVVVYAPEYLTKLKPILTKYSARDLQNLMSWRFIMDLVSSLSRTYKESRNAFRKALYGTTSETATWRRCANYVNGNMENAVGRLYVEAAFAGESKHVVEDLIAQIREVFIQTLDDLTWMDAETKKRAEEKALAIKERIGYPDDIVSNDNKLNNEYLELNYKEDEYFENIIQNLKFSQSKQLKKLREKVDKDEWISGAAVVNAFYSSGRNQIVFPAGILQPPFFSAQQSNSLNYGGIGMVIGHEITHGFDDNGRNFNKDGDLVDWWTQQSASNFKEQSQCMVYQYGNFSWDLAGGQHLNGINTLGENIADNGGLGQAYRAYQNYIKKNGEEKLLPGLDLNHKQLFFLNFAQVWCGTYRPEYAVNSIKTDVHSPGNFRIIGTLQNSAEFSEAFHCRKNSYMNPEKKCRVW
The inhibition constants (Ki) values were determined by means of the ratio of the apparent inhibition constant (Ki(app)) and the substrate Km (Salvesen and Nagase, 1990). In: Proteolytic enzymes a practical aproach, Beynon and Bond Eds Oxford University Press, England, 87-88).

In assay [5] the target is recombinant neutral endopeptidase. Description: fluorogenic substrate (Abz-RL-EDDnp) inhibition assay, recombinant NEP.
The target in assay [6] is T1, recombinant Angiotensin I converting enzyme, N-terminal catalytic site.
T1 chain: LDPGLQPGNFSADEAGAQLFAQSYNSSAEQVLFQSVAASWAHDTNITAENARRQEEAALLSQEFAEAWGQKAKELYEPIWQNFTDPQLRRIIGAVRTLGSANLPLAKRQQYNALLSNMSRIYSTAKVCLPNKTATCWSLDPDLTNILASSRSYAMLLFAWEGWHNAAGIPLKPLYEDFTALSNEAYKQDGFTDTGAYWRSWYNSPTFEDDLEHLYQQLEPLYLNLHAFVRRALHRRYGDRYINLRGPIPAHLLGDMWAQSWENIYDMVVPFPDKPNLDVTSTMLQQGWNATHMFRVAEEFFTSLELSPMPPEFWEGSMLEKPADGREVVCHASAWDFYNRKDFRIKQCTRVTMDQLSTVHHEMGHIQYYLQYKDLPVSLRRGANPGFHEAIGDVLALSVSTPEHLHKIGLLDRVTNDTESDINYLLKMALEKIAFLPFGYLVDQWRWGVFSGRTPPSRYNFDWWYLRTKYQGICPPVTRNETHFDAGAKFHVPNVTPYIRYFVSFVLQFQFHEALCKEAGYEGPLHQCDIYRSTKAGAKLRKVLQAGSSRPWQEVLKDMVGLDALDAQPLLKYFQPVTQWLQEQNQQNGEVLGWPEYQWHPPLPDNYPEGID

Assay [7] has as its target T2, recombinant Angiotensin I converting enzyme, C-terminal catalytic site.
T2 chain: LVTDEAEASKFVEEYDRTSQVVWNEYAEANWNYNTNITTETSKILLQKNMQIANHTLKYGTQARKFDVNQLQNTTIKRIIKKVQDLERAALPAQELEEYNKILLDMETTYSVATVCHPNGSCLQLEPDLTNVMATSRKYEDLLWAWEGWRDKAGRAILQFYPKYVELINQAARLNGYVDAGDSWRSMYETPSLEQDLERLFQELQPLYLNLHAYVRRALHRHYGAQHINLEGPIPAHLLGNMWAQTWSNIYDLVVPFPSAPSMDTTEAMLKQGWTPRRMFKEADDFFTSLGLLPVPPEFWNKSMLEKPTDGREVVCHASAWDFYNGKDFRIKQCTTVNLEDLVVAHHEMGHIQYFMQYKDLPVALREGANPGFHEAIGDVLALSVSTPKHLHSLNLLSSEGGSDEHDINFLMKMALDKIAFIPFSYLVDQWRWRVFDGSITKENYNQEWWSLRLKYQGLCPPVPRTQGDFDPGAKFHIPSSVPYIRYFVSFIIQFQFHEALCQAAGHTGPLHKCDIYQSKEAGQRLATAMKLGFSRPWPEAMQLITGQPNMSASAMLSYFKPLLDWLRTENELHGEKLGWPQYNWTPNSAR

Square brackets hold non-standard residues; d marks the D form. Ends that are not written are not given here. Peptide text beside a SMILES is read from it. pGlu = O=C1CC[C@@H](C(=O)O)N1

As a reminder, the Ki is a measure of affinity in units of concentration, obtained from inhibition or displacement. With `CC[C@H](C)[C@H](NC(=O)[C@@H]1CCCN1C(=O)[C@@H]1CCCN1C(=O)CNC(=O)[C@@H]1CCCN1C(=O)[C@H](C)NC(=O)[C@H](CCCNC(=N)N)NC(=O)CNC(=O)[C@@H]1CCC(=O)N1)C(=O)N1CCC[C@H]1C(=O)N1CCC[C@H]1C(=O)O` [EVASIN-11b, <EGRAPGPPIPP] ([pGlu]GRAPGPPIPP-OH; C-terminus assumed), in assay [1], the “Bk potentiation(%)” value was 164.3%. In addition, the Duration time in assay [1] came to 90. For the same molecule, the values for the Ki in assay [2], in assay [3] and in assay [4] were 3000 nM, 57 nM and 476000 nM, respectively.

As for `CC[C@H](C)[C@H](NC(=O)[C@@H]1CCCN1C(=O)[C@@H]1CCCN1C(=O)[C@H](Cc1c[nH]cn1)NC(=O)[C@@H]1CCCN1C(=O)[C@H](C)NC(=O)[C@H](CCCNC(=N)N)NC(=O)CNC(=O)[C@@H]1CCC(=O)N1)C(=O)N1CCC[C@H]1C(=O)N1CCC[C@H]1C(=O)O` [EVASIN-11c, <EGRAPHPPIPP] ([pGlu]GRAPHPPIPP-OH; C-terminus assumed), the “Bk potentiation(%)” value in assay [1] was 67%. Moreover, in assay [1], the Duration time is given as 28. In addition, the figures for the Ki in assay [2], in assay [3] and in assay [4] were 2000 nM, 40 nM and 589000 nM, respectively.

For EVASIN-10c (peptide), the Ki in assay [5] came out at 253000 nM.

Regarding `CC[C@H](C)[C@H](NC(=O)[C@@H]1CCCN1C(=O)[C@@H]1CCCN1C(=O)[C@H](Cc1c[nH]cn1)NC(=O)[C@@H]1CCCN1C(=O)[C@@H]1CCCN1C(=O)[C@H](CCCNC(=N)N)NC(=O)[C@H](C)NC(=O)[C@@H]1CCC(=O)N1)C(=O)N1CCC[C@H]1C(=O)N1CCC[C@H]1C(=O)O` [EVASIN-11e, EARPPHPPIPP] ([pGlu]ARPPHPPIPP-OH; C-terminus assumed), in assay [1], the “Bk potentiation(%)” value turned out to be 41% and the Duration time is recorded as 35.

Turning to `CC[C@H](C)[C@H](NC(=O)[C@H](CCC(=O)O)NC(=O)[C@@H]1CCCN1C(=O)CNC(=O)[C@@H]1CCCN1C(=O)[C@H](CCCNC(=N)N)NC(=O)[C@@H]1CCCN1C(=O)[C@H](Cc1c[nH]c2ccccc12)NC(=O)CNC(=O)CNC(=O)[C@@H]1CCC(=O)N1)C(=O)N1CCC[C@H]1C(=O)N1CCC[C@H]1C(=O)O` [EVASIN-13a, <EGGWPRPGPEIPP] ([pGlu]GGWPRPGPEIPP-OH; C-terminus assumed), in assay [1], the “Bk potentiation(%)” value was 45%. Besides, the Duration time in assay [1] is 30. The Ki in assay [2] was 50 nM; in assay [3], 50 nM; in assay [4] it was 473000 nM.

`CC[C@H](C)[C@H](NC(=O)[C@H](CCC(N)=O)NC(=O)[C@@H]1CCCN1C(=O)[C@H](CCCNC(=N)N)NC(=O)[C@@H]1CCCN1C(=O)[C@H](Cc1c[nH]c2ccccc12)NC(=O)[C@H](C)NC(=O)[C@H](Cc1c[nH]c2ccccc12)NC(=O)CNC(=O)[C@@H]1CCC(=O)N1)C(=O)N1CCC[C@H]1C(=O)N1CCC[C@H]1C(=O)O` [EVASIN-12a, <EGWAWPRPQIPP] ([pGlu]GWAWPRPQIPP-OH; C-terminus assumed): the inhibition constant (Ki) was 25 nM in assay [2], 25 nM in assay [3] and 106000 nM in assay [4].

With `CC[C@H](C)[C@H](NC(=O)[C@@H]1CCCN1C(=O)[C@@H]1CCCN1C(=O)CNC(=O)[C@@H]1CCCN1C(=O)[C@@H]1CCCN1C(=O)[C@H](CCCNC(=N)N)NC(=O)CNC(=O)[C@H](Cc1c[nH]c2ccccc12)NC(=O)[C@@H]1CCC(=O)N1)C(=O)N1CCC[C@H]1C(=O)N1CCC[C@H]1C(=O)O` [EVASIN-12b, <EWGRPPGPPIPP] ([pGlu]WGRPPGPPIPP-OH; C-terminus assumed), in assay [1], the “Bk potentiation(%)” value is given as 340%. Besides, the Duration time in assay [1] was found to be 40. In addition, the Ki in assay [2] is 5 nM; in assay [3] it was 150 nM; in assay [4], 150000 nM.

Turning to `CC[C@H](C)[C@H](NC(=O)[C@H](CC(N)=O)NC(=O)[C@@H]1CCCN1C(=O)CNC(=O)[C@@H]1CCCN1C(=O)[C@H](Cc1c[nH]c2ccccc12)NC(=O)[C@H](CO)NC(=O)[C@@H]1CCC(=O)N1)C(=O)N1CCC[C@H]1C(=O)N1CCC[C@H]1C(=O)O` [EVASIN-10a, <ESWPGPNIPP] ([pGlu]SWPGPNIPP-OH; C-terminus assumed), the Ki in assay [2] came out at 130 nM; in assay [3] it was 33 nM.

B1: EVASIN-10a (peptide)
peptide: [pGlu]SWPGPNIPP
Regarding B1, the Ki in assay [6] stood at 130 nM; in assay [7], 33 nM.

B2: EVASIN-7a (peptide)
peptide: [pGlu]DGPIPP
On to B2, for which the inhibitory constant (Ki) came to 492000 nM in assay [5], 70000 nM in assay [6] and 40000 nM in assay [7].

B3: EVASIN-11b (peptide)
peptide: [pGlu]GRAPGPPIPP
Regarding B3, the figures for the Ki in assay [5], in assay [6] and in assay [7] were 476000 nM, 3000 nM and 57 nM, respectively.

B4: EVASIN-11c (peptide)
peptide: [pGlu]GRAPHPPIPP
Regarding B4, the inhibitory constant (Ki) is 589000 nM in assay [5], 2000 nM in assay [6] and 40 nM in assay [7].

B5: EVASIN-13a (peptide)
peptide: [pGlu]GGWPRPGPEIPP
For B5, the Ki in assay [5] came out at 473000 nM; in assay [6], 50 nM; in assay [7], 50 nM.

B6: EVASIN-12a (peptide)
peptide: [pGlu]GWAWPRPQIPP
Consider B6, for which the Ki came out at 106000 nM in assay [5], 25 nM in assay [6] and 25 nM in assay [7].

B7: EVASIN-5a (peptide)
peptide: [pGlu]KWAP
On to B7, for which the Ki in assay [5] came out at 550000 nM; in assay [6], 399 nM; in assay [7], 1280 nM.

B8: EVASIN-9a (peptide)
peptide: EWPRPQIPP
modifications: pyroglutamic acid (<E) at position 1 (N-terminus)
Regarding B8, the Ki in assay [5] is 86000 nM; in assay [6] it was 100 nM; in assay [7] it was 1 nM.

B9: EVASIN-12b (peptide)
peptide: [pGlu]WGRPPGPPIPP
As to B9, the figures for the Ki in assay [5], in assay [6] and in assay [7] were 150000 nM, 5 nM and 150 nM, respectively.
